Source: patent US20050002983A1, “Devices, methods, and compositions to prevent restenosis” (priority 2003, published 2005)

Key:
[1] = Solubility in PBS; type: physicochemical
[2] = tested on: endothelial cells; test: Cytotoxicity IC50 against endothelial cells; type: cell-based
[3] = tested on: Human aortic smooth muscle cells (AoSMCs); test: MTS cell viability/proliferation assay, AoSMC, Days 0-5; conditions: for dose-response of cell viability (optical density): 10, 100, 1,000 nM, SMCs and HUVECs, Days 0-5
Experimental: Human aortic smooth muscle cells (“AoSMCs”) and human umbilical vein endothelial cells (“HUVECs”) were plated on 96-well culture plates at a density of about 10,000 cells per square centimeter (10,000 cells/cm^2). The density was determined using growth curves determined by calculating the average absolute optical densities (“ODs”, defined as cellular OD—media only OD) for each plating concentration, for each day, and each cell type (AoSMC or HUVEC) over a five-day time period.
Prior to experiments, the AoSMCs and HUVECS were thawed and independently propagated through two- or three population doublings following Clonetics recommendations and standard cell culture techniques. Clonetics Growth Media and Reagents were used without alteration in all aspects of the study described herein unless otherwise noted. […] SMGM contained: 500 ml SMBM-2 basal media, 5% FBS, and all recommended singlequot growth supplements (provided with SMGM-2 bulletkit) ECGM contained: 500 ml EBM basal media, 2% FBS, and all recommended singlequot growth supplements (provided with EGM-bulletkit).
After initial plating all 96-well plates were placed in a standard 37° C., 5% CO2 incubator. Conditions, including media, were not changed except as detailed below. For consecutive 24-hour time-periods, from Day 1 to Day 5, a single 96-well plate was removed from the incubator.
Cell Preparation Source cells were selected at 70-80% confluency of the second or third population doubling since initial thaw. In order to synchronize cell cycle, source cells were changed from standard growth media to media containing 1% serum twenty-four hours prior to experiment (other growth factors were unchanged). On Day 0 of the experiment, source cells were removed from culture dishes by trypsinization (0.05×1 min.-2 min), quantified by hemacytometer after centrifuge (800 RPM×5 min.), and re-suspended in media to obtain a stock solution of about 25,000 cells/ml.
The drugs were dissolved in dimethylsulfoxide (“DMSO”) solvent to make stock solutions, which were then diluted serially in media to three study concentrations (10 nM; 100 nM; and 1,000 nM). The drugs at three concentration each, solvent without drug at three concentrations, and standard media were added independently to cells on the first day of the study only. Cells in two columns (16 wells) for each cell type on each day will not receive drug and serve as internal controls. Cellular viability and proliferation was assessed using the MTS assay for each cell type at each of the six time points.
On Day 1, six hours after initial plating, the media was removed from all wells by vacuum suction; and with the appropriate growth media-drug solution for each of three drugs at three concentrations described above was added to the wells. […]

[4] = tested on: Human aortic smooth muscle cells; test: IC50 by CellTiter-Glo Luminescent Cell Viability Assay, smooth muscle cells; type: cell-based
Experimental: The cells were seeded in duplicate, in opaque-walled 96-well microtiter plates at a cell density of 3,000 cells per well and allowed to attach overnight. Serial dilutions of each drug were added, and the cells were incubated for 96 hours. The IC50 values for the drugs was determined using the CellTiter-Glo Luminescent Cell Viability Assay (Promega, Madison, Wis.), which correlates with the number of live cells.

[5] = Release kinetics of epothilone D from polymer matrices; type: physicochemical

C=CCNC1=C2C[C@@H](C)C[C@H](OC)[C@H](O)[C@@H](C)/C=C(\C)[C@H](OC(N)=O)[C@@H](OC)/C=C\C=C(/C)C(=O)NC(=CC1=O)C2=O [17-AAG, 17-allylamino-17-desmethoxygeldanamycin]
solubility [1]: 60 micrograms/mL
IC50 [2]: 0.35 µM
dose-response of cell viability (optical density) [3]: dose-response characteristics consistent with utility to reduce or prevent restenosis
IC50 ([4]; smooth muscle cells): ~0.01 µM

C/C1=C/C[C@@H](/C(C)=C/c2csc(C)n2)OC(=O)C[C@H](O)C(C)(C)C(=O)[C@H](C)[C@@H](O)[C@@H](C)CCC1 [epothilone D]
dose-response of cell viability (optical density) [3]: dose-response characteristics consistent with utility to reduce or prevent restenosis
release rate from polymer matrix ([5]; from poly(lactide)): approximately 6 micrograms/day
release rate from polymer matrix ([5]; from polyurethane): 1.58 micrograms/day

COC1=C2C[C@@H](C)C[C@H](OC)[C@H](O)[C@@H](C)/C=C(\C)[C@H](OC(N)=O)[C@@H](OC)/C=C\C=C(/C)C(=O)NC(=CC1=O)C2=O [geldanamycin, reference compound]
IC50 ([4]; Homo sapiens): ~0.0009 µM

CO[C@H]1/C=C\C=C(/C)C(=O)NC2=CC(=O)C(NCCN(C)C)=C(C[C@@H](C)C[C@H](OC)[C@H](O)[C@@H](C)/C=C(\C)[C@@H]1OC(N)=O)C2=O [17-DMAG, 17-[2-(dimethylamino)ethylamino]-17-desmethoxygeldanamycin]
dose-response of cell viability (optical density) [3]: dose-response characteristics consistent with utility to reduce or prevent restenosis
selectivity for SMCs over ECs ([3]; AoSMC vs HUVEC viability, 10-1,000 nM): relative selectivity for SMCs over ECs
